Each structure is given as a SMILES string.

Experiment [1] deals with A2aR. As to conditions: alone or in combination with anti-PD-1 and anti-CTLA4; cited from earlier work.
Experiment [2] can be described thus: Secondary pharmacology panel. To be noted: 10 μM initial screen; apart from adenosine receptors; data not shown.
The test system of experiment [3] is B16-CD73+ tumor cells. Kind of experiment: Experimental lung metastasis model, B16-CD73+ cells i.v. The experiment is classed as in vivo, C57Bl/6 mice. As to conditions: 15 mg/kg/day oral gavage, daily for 15 days, vs vehicle, P < .05.
For experiment [4], the system named is MCA205 tumor cells. Kind of experiment: Experimental lung metastasis model, MCA205 cells i.v. The format is in vivo, C57Bl/6 mice. As to conditions: 30 mg/kg/day oral gavage, daily for 7 days, vs vehicle, P < .05.
In experiment [5] the test system is human tumor-infiltrating lymphocytes (TILs). Kind of experiment: Ex vivo assay of disaggregated resected NSCLC tumors, γ-interferon ELISA. To be noted: tumors of Figure 5 A and B; 3 days culture. The experiment is classed as cell-based.

Consider `Nc1nc2c(cnn2CCc2ccccc2)c2nc(-c3ccco3)nn12` [SCH58261], for which, in experiment [1], the “tumor burden in vivo” value is given as “decreased tumor burden”.
In the case of `Nc1nc(NCCc2ccc(O)cc2)nc2nc(-c3ccco3)nn12` [ZM241385], the “tumor burden in vivo” value in experiment [1] is reported as “decreased tumor burden”.
On to `Nc1nc(-n2cccn2)nc(-n2cccn2)c1Br` [PBF-509], for which the “effect in secondary pharmacology profile” value in experiment [2] is “did not show any relevant effect”. In addition, the “tumor burden (lung nodules, lung weight)” value in experiment [3] and in experiment [4] was “significantly reduced tumor burden” in each case. Also, the “TIL function (γ-interferon), combination of PBF-509 with anti-PD-L1” value in experiment [5] is “improved TIL function in an additive fashion”.

(Values after article PMC5458644 (Neoplasia (New York, N.Y.), 2017).)
